The source of these data is patent US20220324835A1 (Nurix Therapeutics, Inc., priority 2018, published 2022).

Some results are limits rather than exact numbers.

One experiment concerns the target Cbl-b (residues 36-427) (Homo sapiens, UniProt Q13191). As to the kind of experiment: Cbl-b binding assay (SPR, Biacore T200). To be noted: 20° C., 1:1 binding model. The method, boiled down:
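Steps: capture protein on NeutrAvidin surface; inject compound dilutions (8 or 10 points from 100 or 50 μM) 50 s; allow 90-180 s dissociation; regenerate 20 s with 0.3 M NaCl. Runs at 20° C in HEPES pH 7.5/100 mM NaCl/2% DMSO; 1:1 fitting.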
In general terms: In SPR one partner is held on a chip, and binding of the other changes the refractive index at the surface.

The target of another experiment is Cbl-b (Homo sapiens, UniProt Q13191). As to the kind of experiment: Cbl-b activity assay (Cbl-b inhibition assay), TR-FRET of Cbl-b interaction with UbcH5B-Ub. It counts as biochemical. To be noted: assay buffer with 100 mM NaCl, 60 nM Src kinase; read-out: Cbl-b activity IC50. The method, boiled down: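 UbcH5B (C85K) conjugated to N-terminally Bodipy-Fluorescein-labeled ubiquitin served as the fluorescent partner. After compound preincubation, Src kinase (60 nM) with 1 mM ATP and 5 mM MgCl2 (final) was added for 1.5 h, followed by a further 1 h incubation. Some values were obtained with 50 mM NaCl and 30 nM Src.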
Sequence of Cbl-b (Q13191 36-427): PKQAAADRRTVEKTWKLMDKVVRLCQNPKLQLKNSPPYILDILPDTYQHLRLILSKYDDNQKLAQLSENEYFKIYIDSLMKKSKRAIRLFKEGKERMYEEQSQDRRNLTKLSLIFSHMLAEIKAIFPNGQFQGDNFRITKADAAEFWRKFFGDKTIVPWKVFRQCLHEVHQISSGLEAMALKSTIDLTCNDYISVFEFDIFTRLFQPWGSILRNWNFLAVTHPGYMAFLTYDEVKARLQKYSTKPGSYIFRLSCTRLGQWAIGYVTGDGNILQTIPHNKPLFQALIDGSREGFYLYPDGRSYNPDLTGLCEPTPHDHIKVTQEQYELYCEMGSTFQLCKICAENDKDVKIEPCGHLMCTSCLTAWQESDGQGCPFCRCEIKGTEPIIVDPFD

Sequence of Cbl-b (residues 36-427) (Q13191 36-427): as above

For `C[C@H](Cc1nncn1C)c1cccc(NC(=O)c2cc(O[C@@H]3CC[C@@H](O)C3)ccn2)c1` (relative stereo) [Compound 205, trans-4-(3-hydroxycyclopentyloxy)-N-(3-((R)-1-(4-methyl-4H-1,2,4-triazol-3-yl)propan-2-yl)phenyl)picolinamide], on Cbl-b (residues 36-427), the Kd (usually the concentration at which binding is half-saturated) is 0.1 to 0.3 µM. Also, at Cbl-b, the IC50 (as a rule, the concentration that gives 50% inhibition) is less than 0.1 µM.

For `C[C@H](c1cc2c(c(C(F)(F)F)c1)CN(c1cccc(C3([C@H](F)c4nncn4C)COC3)c1)C2=O)N1CCC2(CC2)C1` (stereo in doubt) [Example 575, 6-((R)-1-(5-Azaspiro[2.4]heptan-5-yl)ethyl)-2-(3-(3-((S)-fluoro(4-methyl-4H-1,2,4-triazol-3-yl)methyl)oxetan-3-yl)phenyl)-4-(trifluoromethyl)isoindolin-1-one], at Cbl-b, the IC50 is less than 0.1 µM.

`Cc1ccc(C(=O)Nc2cccc([C@H](C)Sc3nncn3C)c2)nc1C1CC1` [Compound 54, (S)-6-cyclopropyl-5-methyl-N-(3-(1-((4-methyl-4H-1,2,4-triazol-3-yl)thio)ethyl)phenyl)picolinamide] returned a Kd at Cbl-b (residues 36-427) of 0.1 to 0.3 µM. Also, the IC50 at Cbl-b was less than 0.1 µM.

In the case of `Cc1cc(C(=O)Nc2cccc([C@H](C)Sc3nncn3C)c2)nc(C(F)(F)F)c1` [Compound 65, (S)-4-methyl-N-(3-(1-((4-methyl-4H-1,2,4-triazol-3-yl)thio)ethyl)phenyl)-6-(trifluoromethyl)picolinamide], the Kd on Cbl-b (residues 36-427) was 0.1 to 0.3 µM. Moreover, the IC50 on Cbl-b is less than 0.1 µM.

With `C[C@H](Sc1nncn1C)c1cccc(NC(=O)c2cc(C3CC3)cc(C(F)(F)F)n2)c1` [Compound 67, (S)-4-cyclopropyl-N-(3-(1-((4-methyl-4H-1,2,4-triazol-3-yl)thio)ethyl)phenyl)-6-(trifluoromethyl)picolinamide], the dissociation constant Kd at Cbl-b (residues 36-427) is 0.1 to 0.3 µM. In addition, the IC50 at Cbl-b was less than 0.1 µM.

Take `C[C@H](Sc1nncn1C)c1cccc(NC(=O)c2cccc(C3CC3)n2)c1` [Compound 72, (S)-6-cyclopropyl-N-(3-(1-((4-methyl-4H-1,2,4-triazol-3-yl)thio)ethyl)phenyl)picolinamide]: on Cbl-b (residues 36-427), the Kd lay in the range of 0.1 to 0.3 µM. The IC50 on Cbl-b was less than 0.1 µM.

Take `C[C@H](Sc1nncn1C)c1cccc(NC(=O)c2ccnc(C3CC3)n2)c1` [Compound 76, 2-cyclopropyl-A-[3-[(1S)-1-[(4-methyl-1,2,4-triazol-3-yl)sulfanyl]ethyl]phenyl]pyrimidine-4-carboxamide]: the Kd on Cbl-b (residues 36-427) lay within 0.1 to 0.3 µM. Further, the IC50 on Cbl-b was less than 0.1 µM.

As to `C[C@H](Sc1nncn1C)c1cccc(NC(=O)c2ccc(CO)c(C3CC3)n2)c1` [Compound 89, 6-cyclopropyl-5-(hydroxymethyl)-N-[3-[(1S)-1-[(4-methyl-1,2,4-triazol-3-yl)sulfanyl]ethyl]phenyl]pyridine-2-carboxamide], the Kd on Cbl-b (residues 36-427) lay in the range of 0.1 to 0.3 µM. In addition, the IC50 at Cbl-b is less than 0.1 µM.

Take `C[C@H](Sc1nncn1C)c1cccc(NC(=O)c2ccc(F)c(C3CC3)n2)c1` [Compound 91, 6-Cyclopropyl-5-fluoro-N-[3-[(1S)-1-[(4-methyl-1,2,4-triazol-3-yl)sulfanyl]ethyl]phenyl]pyridine-2-carboxamide]: the Kd at Cbl-b (residues 36-427) is 0.1 to 0.3 µM. On Cbl-b, the IC50 was less than 0.1 µM.

Turning to `C[C@H](Sc1nncn1C)c1cccc(NC(=O)c2ccc(C#N)c(C3CC3)n2)c1` [Compound 92, 5-cyano-6-cyclopropyl-N-[3-[(1S)-1-[(4-methyl-1,2,4-triazol-3-yl)sulfanyl]ethyl]phenyl]pyridine-2-carboxamide], the Kd at Cbl-b (residues 36-427) lay in the range of 0.1 to 0.3 µM. On Cbl-b, the concentration for half-maximal inhibition (IC50) is less than 0.1 µM.

In the case of `COc1ccc(C(=O)Nc2cccc([C@H](C)Sc3nncn3C)c2)nc1C1CC1` [Compound 93, 6-cyclopropyl-5-methoxy-N-[3-[(1S)-1-[(4-methyl-1,2,4-triazol-3-yl)sulfanyl]ethyl]phenyl]pyridine-2-carboxamide], the Kd on Cbl-b (residues 36-427) was 0.1 to 0.3 µM. For the same molecule, the IC50 on Cbl-b is less than 0.1 µM.

With `C[C@H](Cc1nncn1C)c1cccc(NC(=O)c2cc(C3CC3)cc(C(F)(F)F)n2)c1` [Compound 191, (R)-4-cyclopropyl-N-(3-(1-(4-methyl-4H-1,2,4-triazol-3-yl)propan-2-yl)phenyl)-6-(trifluoromethyl)picolinamide], the Kd at Cbl-b (residues 36-427) is less than 0.1 µM. For the same molecule, the IC50 at Cbl-b was less than 0.1 µM.

In the case of `C[C@H](Cc1nncn1C)c1cccc(NC(=O)c2cc(C3CC3)nc(C3CC3)n2)c1` [Compound 193, (R)-2,6-dicyclopropyl-N-(3-(1-(4-methyl-4H-1,2,4-triazol-3-yl)propan-2-yl)phenyl)pyrimidine-4-carboxamide], on Cbl-b (residues 36-427), the Kd is less than 0.1 µM. Also, the 50% inhibitory concentration (IC50) on Cbl-b was less than 0.1 µM.

`Cc1cc(C(=O)Nc2cccc([C@H](C)Cc3nncn3C)c2)nc(C(F)(F)F)n1` [Compound 194, (R)-6-methyl-N-(3-(1-(4-methyl-4H-1,2,4-triazol-3-yl)propan-2-yl)phenyl)-2-(trifluoromethyl)pyrimidine-4-carboxamide] displayed a Kd on Cbl-b (residues 36-427) of 0.1 to 0.3 µM. Also, the IC50 on Cbl-b is less than 0.1 µM.

In the case of `C[C@H](Cc1nncn1C)c1cccc(NC(=O)c2nc3c(C(F)(F)F)cccc3[nH]2)c1` [Compound 196, N-[3-[(1R)-1-methyl-2-(4-methyl-1,2,4-triazol-3-yl)ethyl]phenyl]-4-(trifluoromethyl)-1H-benzimidazole-2-carboxamide], the Kd at Cbl-b (residues 36-427) was 0.1 to 0.3 µM. Moreover, the 50% inhibitory concentration (IC50) at Cbl-b is less than 0.1 µM.

On Cbl-b (residues 36-427), `C[C@H](Cc1nncn1C)c1cccc(NC(=O)c2ccnc(C3CC3)n2)c1` [Compound 199, (R)-2-cyclopropyl-N-(3-(1-(4-methyl-4H-1,2,4-triazol-3-yl)propan-2-yl)phenyl)pyrimidine-4-carboxamide] gave a Kd of 0.1 to 0.3 µM. In addition, on Cbl-b, the IC50 was less than 0.1 µM.

As to `C[C@H](Cc1nncn1C)c1cccc(NC(=O)c2ccc(CO)c(C3CC3)n2)c1` [Compound 203, 6-cyclopropyl-5-(hydroxymethyl)-N-[3-[(2R)-1-(4-methyl-4H-1,2,4-triazol-3-yl)propan-2-yl]phenyl]pyridine-2-carboxamide], on Cbl-b (residues 36-427), the Kd was less than 0.1 µM. The IC50 at Cbl-b was less than 0.1 µM.

With `CC(=O)N1CCN(c2ccc3cnc(C(=O)Nc4cccc([C@H](C)Cc5nncn5C)c4)cc3c2)CC1` [Compound 211, (R)-6-(4-acetylpiperazin-1-yl)-N-(3-(1-(4-methyl-4H-1,2,4-triazol-3-yl)propan-2-yl)phenyl)isoquinoline-3-carboxamide 2,2,2-trifluoroacetate], the Kd on Cbl-b (residues 36-427) was in the range of 0.1 to 0.3 µM. The half-maximal inhibitory concentration (IC50) on Cbl-b was less than 0.1 µM.

On Cbl-b (residues 36-427), `C[C@H](Cc1nncn1C)c1cccc(NC(=O)c2cc(C(=O)N3CC[C@H](O)C3)cc(C(F)(F)F)n2)c1` [Compound 220, 4-((S)-3-hydroxypyrrolidine-1-carbonyl)-N-(3-((R)-1-(4-methyl-4H-1,2,4-triazol-3-yl)propan-2-yl)phenyl)-6-(trifluoromethyl)picolinamide] displayed a Kd of less than 0.1 µM. Further, the IC50 at Cbl-b was less than 0.1 µM.

Molecule `C[C@H](Cc1nncn1C)c1cccc(N2Cc3c(cc(C(=O)N4CC[C@H](O)C4)cc3C(F)(F)F)C2=O)c1` [Compound 274, 6-((S)-3-hydroxypyrrolidine-1-carbonyl)-2-(3-((R)-1-(4-methyl-4H-1,2,4-triazol-3-yl)propan-2-yl)phenyl)-4-(trifluoromethyl)isoindolin-1-one] had a Kd at Cbl-b (residues 36-427) of less than 0.1 µM. For the same molecule, the IC50 at Cbl-b was less than 0.1 µM.

Regarding `C[C@H](Cc1nncn1C)c1cccc(N2Cc3c(cc(C(=O)N4C[C@@H](O)C[C@H]4C)cc3C(F)(F)F)C2=O)c1` [Compound 275, 6-((2R,4S)-4-hydroxy-2-methylpyrrolidine-1-carbonyl)-2-(3-((R)-1-(4-methyl-4H-1,2,4-triazol-3-yl)propan-2-yl)phenyl)-4-(trifluoromethyl)isoindolin-1-one], the Kd at Cbl-b (residues 36-427) is less than 0.1 µM. Moreover, the half-maximal inhibitory concentration (IC50) at Cbl-b was less than 0.1 µM.

With `C[C@H](Cc1nncn1C)c1cccc(N2Cc3c(cc(C(=O)N4CC(O)C4)cc3C(F)(F)F)C2=O)c1` [Compound 276, (R)-6-(3-hydroxyazetidine-1-carbonyl)-2-(3-(1-(4-methyl-4H-1,2,4-triazol-3-yl)propan-2-yl)phenyl)-4-(trifluoromethyl)isoindolin-1-one], the Kd on Cbl-b (residues 36-427) lay within 0.301 to 1 µM. Also, the IC50 on Cbl-b was less than 0.1 µM.

For `C[C@H](Cc1nncn1C)c1cccc(N2Cc3c(cc(C(=O)N4CC[C@H](O)C4)cc3C3CC3)C2=O)c1` [Compound 277, 4-cyclopropyl-6-((S)-3-hydroxypyrrolidine-1-carbonyl)-2-(3-((R)-1-(4-methyl-4H-1,2,4-triazol-3-yl)propan-2-yl)phenyl)isoindolin-1-one], the Kd at Cbl-b (residues 36-427) lay within 0.1 to 0.3 µM. Besides, at Cbl-b, the IC50 was less than 0.1 µM.

Turning to `Cn1cnnc1CC1(c2cccc(N3Cc4c(cccc4C(F)(F)F)C3=O)c2)CC1` [Compound 299, 2-(3-(1-((4-methyl-4H-1,2,4-triazol-3-yl)methyl)cyclopropyl)phenyl)-4-(trifluoromethyl)isoindolin-1-one], the Kd at Cbl-b (residues 36-427) lay within 1 to 3 µM. Also, at Cbl-b, the IC50 was less than 0.1 µM.

`CN1CC2CCC(C1)N2c1cc2c(c(C(F)(F)F)c1)CN(c1cccc(C3(Cc4nncn4C)COC3)c1)C2=O` [Compound 386, 2-(3-(3-((4-Methyl-4H-1,2,4-triazol-3-yl)methyl)oxetan-3-yl)phenyl)-6-(3-methyl-3,8-diazabicyclo[3.2.1]octan-8-yl)-4-(trifluoromethyl)isoindolin-1-one]: the IC50 on Cbl-b is less than 0.1 µM.

As for `C[C@@H]1CN(Cc2cc3c(c(C(F)(F)F)c2)CN(c2cccc(C4(Cc5nncn5C)COC4)c2)C3=O)CCO1` [Example 663b, (R)-2-(3-(3-((4-methyl-4H-1,2,4-triazol-3-yl)methyl)oxetan-3-yl)phenyl)-6-((2-methylmorpholino)methyl)-4-(trifluoromethyl)isoindolin-1-one], the IC50 on Cbl-b is less than 0.1 µM.
